Values quoted from earlier work as cited in US20070141149A1, “Controlled-release pharmaceutical formulation” (priority 2003, published 2007).
Where two headings read alike, the source gives them in different places.

Settings: orally administered

- bioavailability (on an empty stomach): ~100%
- bioavailability (taken during meals): decreased
- cmax (taken during meals): decreased
Structure (SMILES): CCOc1ccccc1OCCN[C@H](C)Cc1ccc(OC)c(S(N)(=O)=O)c1 [tamsulosin]
